The text below walks through data of US20240238282A1, “METHODS OF TREATING CANCER AND ISCHEMIA DISEASES BY INHIBITION AND INTERVENTION OF ATR PROLYL ISOMERIZATION” (The University of Toledo, priority 2022, published 2024).

The experiment has as its system patient derived PDCL5 cells of metastatic pancreatic cancer. Nature of the experiment: Cell killing of patient-derived pancreatic cancer PDCL5 cells by gemcitabine, LB-100 or the combination. The format is cell-based, human. To be noted: single agent: gemcitabine 1.0 uM or LB-100 5 uM, 72 hours (FIG. 3E). On the procedure: FIGS. 3A-3E: Analysis of the antiapoptotic function of cis-ATR in human cancer via TCGA data mining. […] FIGS. 3F-3G show two patient-derived pancreatic cancer cells, PDCL5 and PDCL15, subjected to MTT assays after treating with the PDAC therapy drug gemcitabine (1.0 μM or 0.3 μM, respectively) and PP2A inhibitor LB-100 (5 μM), alone or in combination, for 72 hours. PANC-1 cells were treated with gemcitabine (1.0 μM) or FOLFIRINOX (5-FU, 10 μM, oxaliplatin, 0.1 μM, leucovorin, 0.15 μM, irinotecan, 0.1 μM), alone or in combination with LB-100 (1.0 μM), for 72 hours before the MTT assay.
To further validate the above observations are not at random, the 5-year survival probability (SP) of different subgroups was calculated for all 17 cancer types, and paired Wilcoxon rank-sum tests were performed. […] The SP difference of DAPK1 expression level is not significant, likely because DAPK indirectly regulates cis-ATR while ATR is a direct substrate of Pin1 and PP2A. […] This remains true even for the analysis regardless of cancer types (FIG. 3D). […]
MTT viability assays were performed according to the manufacturer's specifications (Cayman's MTT Proliferation Assay kit #10009365), and […]. […]

For the molecule `CN1CCN(C(=O)C2C3CCC(O3)C2C(=O)O)CC1` (centres unmarked) [LB-100], the cell death induced entry is “little cell death”. Next, `Nc1ccn([C@@H]2O[C@H](CO)[C@@H](O)C2(F)F)c(=O)n1` [Gemcitabine, gemcitabine]: “little cell death”.
